Here are results for three compounds from patent publication US6590123B2, “Aminobenzoic acid derivatives having anti-tumorigenic activity, methods of making and using the same” (Mount Sinai School of Medicine of New York University, priority 1998, dated 2003).

One data set has as its system Purified tubulin. Briefly: Inhibition of microtubule assembly by spectrophotometry, cell free system. The class given is biochemical, calf. Conditions: cell free tubulin; for inhibition of microtubule assembly: 1 μg/ml (3.3 μM for 3-BAABU). How it is done:
Purified tubulin was purchased from Sigma (St. Louis, Mo.). The effects of compounds 6, 7, 8, 9, paclitaxel and vinblastine on the microtubule assembly-disassembly process were determined using conditions recommended by the vendor. For assembly inhibition, 100 μl tubulin solution (500-600 μg protein/ml) was mixed gently with 400 μl reaction buffer containing 0.1 M MES (2-[N-morpholino]ethane sulfonic acid), 1 mM EGTA ([…]-N,N,N′,N′-tetraacetic acid), 0.5 mM MgCl2, 0.1 mM EDTA and 2.5 M gycerol at 37° C. Compounds 6, 7, 8, and 9 were next added to each sample at final concentrations of 10, 10, 1 and 1 μg/ml, respectively. After adding GTP to each sample to a final concentration of 1 mM, the microtubule assembly process was monitored by measuring the change of absorbance (OD) at 350 nm on a spectrophotometer (Ultrospec III, Pharmacia LKB, Uppsala, Sweden). A completed assembly process was observed within 40 min at room temperature. For disassembly inhibition, compounds 6, 7, 8, and 9 were added, at the above concentrations, to covets with repolymerized microtubules as described above, and incubated in melting ice. Changes of absorbance (OD) were monitored at 350 nm for 30 min until the OD values in the controls returned to the starting level, i.e., when the assembly-disassembly cycle was completed.
Purified tubulin from calf brain was purchased from Sigma (St. Louis, Mo.). The effects of 3-BAABU (3-bromoacetoamido, benzoylurea) on the microtubule assembly-disassembly process were determined using the conditions recommended by the vendor. For assembly inhibition, 100 μl tubulin solution (500-600 μg protein/ml) was mixed gently with 400 μl reaction buffer containing 0.1 M MES, 1 mM EGTA, 0.5 mM MgCl2, 0.1 mM EDTA and 2.5 M glycerol at 37° C. 3-BAABU, paclitaxel or vinblastine were then added to each sample cuvet at final concentrations of 3.3, 23 or 22 μM, respectively. After adding GTP to each sample to a final concentration of 1 mM, the microtubule assembly process was monitored by measuring the change of absorbance (OD) every 5 min at 350 nm on a spectrophotometer (Ultrospec III, Pharmacia LKB, Uppsala, Sweden). A completed assembly process was observed within 40 min at room temperature. For disassembly inhibition, 3-BAABU (3.3 μM), paclitaxel (23 μM) or vinblastine (22 μM) was added to a cuvet with repolymerized microtubules according to the method described above, and incubated in melting ice. Changes of absorbance (OD) were monitored at 350 nm for 30 min until the OD values in the controls returned to the starting level, i.e., completion of the assembly-disassembly cycle. Solvent solutions were used as control and had no effect in either the assembly or disassembly process.

Data set [1] relates to EL4 murine leukemia lymphoma. Briefly: Block of mitosis, morphology by microscopy. The class given is cell-based. More on the design: key: +Block of mitosis was observed; −no mitotic blocking. The following applies: 37° C. for 48 hr. How it is done:
(§1) All cell lines, with the exception of human SP cells, a biphenotypic leukemic cell line (reference 10 & 11), were obtained from the American Tissue Culture Collection (Rockville, Md.) and were cultured under conditions recommended by the vendor. EL4 murine leukemia lymphoma (as suspension) and B16 mouse melanoma (as monolayer) cell lines were cultivated in RPMI-1640 medium supplemented with 10% fetal bovine serum (FBS), penicillin (250 μ/ml) and streptomycin (250 μml); MOT, a non-tumor proliferative myocardial cell line from rat and NIH 3T3, a non-malignant and proliferative fibroblast cell line from mouse were both cultured as monolayers in Dulbecco's Modified Eagle's Medium with 10% heat inactivated calf serum. CEM, a human acute T-cell leukemic cell line, was cultured as a suspension in Iscove's Dulbecco's Medium with 10% heat inactivated fetal calf serum and antibiotics. PC-3 cells, a human prostate cancer line, was cultured as monolayers in RPMI-1640 with 10% FBS. SP cells were cultured in Minimum Eagle's Medium plus 10% FBS. Human peripheral blood lymphocytes (PBL) were isolated from whole blood of healthy individuals by Ficoll-Hypaque gradient method. Isolated PBL were maintained in RPMI-1640 in the presence of 10% homologous plasma at 37° C. All cells were incubated at 37° C. in 5% C02. Cells in exponential growth were used. […]

The test system of data set [2] is NIH 3T3 fibroblast cell line. In words: Block of mitosis, morphology by microscopy. The format is cell-based, mouse. More on the design: key to Block of Mitosis: +Block of mitosis was observed; −no mitotic blocking. As to the method: as §1
Data set [3] can be described thus: LD50 (lethal dose) in mice. The following applies: mouse, in vivo, ip. The text has this: (§2) The in vivo efficacy of 3-BAABU and 3-IAABU of the present invention was asssessed in a murine model, along with known anti-tubule agents, vinblastine and paclitaxel, as a comparative standard. Approximately 10^6 P338 leukemia lymphoma cells/mouse were implanted intra-peritoneal (i.p.) into male C57 BL/6JX mice (Jackson Laboratories, N.Y.). On days 2 and 8 post-implantation, drugs were administrated i.p. at the following concentration ranges: 3-BAABU from 16.6 to 116 μmole/kg, 3-IAABU from 14.4 to 101 μmole/kg, vinblastine from 2.2 to 20 μmole/kg and paclitaxel from 28 to 57 μmole/kg.
(§3) Both control and treated animals were examined for ascitic tumor burden daily for 35 days. […] Therapeutic index was defined as the ratio of LD50 (lethal dose) to ED50 (effective dose).

The test system of the next data set is L1210 Leukemia. In words: Survival of mice implanted i.p. with L1210 Leukemia. The class given is in vivo.
Data set [4] concerns P338 leukemia lymphoma cells. Briefly: Survival and ED50 in mice implanted i.p. with P338 lymphoma. The class given is in vivo, male C57 BL/6JX mice. The following applies: for ED50: P338 leukemia lymphoma i.p. in mice, drug i.p. on days 2 and 8. As to the method:
FIG. 9 is a plot graph of the survival rate of male C57 BL/6JX mice implanted (i.p.) with P338 lymphoma, from 10 to 40 days after implantation. Two groups were used for the study: a control group of ten and a test group of ten that were treated with 20 mg/kg, (i.p.) of compound 8 at 2 and 8 days post-implantation.
as §2, §3

The structures appear in SMILES notation. “Also recorded” adds a separate entry of the source.

The term ED50 denotes the dose at which the effect has come halfway, by size or by number of responders.

As for `NC(=O)NC(=O)c1cccc(NC(=O)CCl)c1` [Compound 7, 3-Chloroacetoamido, benzoylurea], the “effect on microtubule assembly” value in the data set with Purified tubulin (up to 10 μg/ml) was “very weak inhibitory effect; also recorded: no effect”.
For the compound `NC(=O)NC(=O)c1cccc(NC(=O)CBr)c1` [Compound 8, 3-Bromoacetoamido, benzoylurea], the “Block of Mitosis” value is “+” in data set [1] and “−” in data set [2] (3T3, Murine fibroblast (non-tumor), 37° C. for 48 hr). Also, the morphologic effect result in data set [2] (murine fibroblast cells, 1.0 μg/ml, 24 hr at 37° C.) is reported as “no effect”. Also, the “inhibition of microtubule assembly” value is on record as “complete inhibition; also recorded: completely inhibited” in the data set with Purified tubulin and “Complete inhibition” with Purified tubulin (listed as 3-BAABU). Further, in data set [3], the LD50 entry is on record as “about 90 μmole/kg”. Besides, the “Survival IL %” value in the data set with L1210 Leukemia (20 mg/kg ip on days 2 & 8) is on record as 44%; in data set [4] (P338 Lymphoma (i.p.), 20 mg/kg ip on days 2 & 8), 54%. Besides, the “Survival Mean ± SD” value in the data set with L1210 Leukemia (20 mg/kg ip on days 2 & 8, control 16.5 ± 1.4) is 23.7 ± 4.4; in data set [4] (P338 Lymphoma (i.p.), 20 mg/kg ip on days 2 & 8, control 18.6 ± 1.1), 28.6 ± 5.2. This compound came in with an ED50 in data set [4] of 27 µmol/kg.
On to `NC(=O)NC(=O)c1cccc(NC(=O)CI)c1` [Compound 9, 3-Iodoacetoamido, benzoylurea], for which, in the data set on Purified tubulin, the “inhibition of microtubule assembly” value is recorded as “complete inhibition; also recorded: completely inhibited”. For the same compound, the LD50 entry in data set [3] is reported as “about 90 μmole/kg”. Further, the ED50 in data set [4] was 26 µmol/kg.
